Measurements: ChEMBL document CHEMBL1133784, “Inhibition of hepatitis C virus NS3 protease activity by product-based peptides is dependent on helicase domain” (Bioorg Med Chem Lett, 2001)
Where a SMILES comes first, the peptide text is derived from it. [ ]: non-standard residue; d: D form. Dip = N[C@H](C(=O)O)C(c1ccccc1)c1ccccc1; 2Nal = N[C@@H](Cc1ccc2ccccc2c1)C(=O)O; dGla = N[C@H](CC(C(=O)O)C(=O)O)C(=O)O; Cha = N[C@@H](CC1CCCCC1)C(=O)O

Experiments:
NS3 [1] = molecular target: T1, NS3 (Hepatitis C virus, UniProt A3EZJ3); assay: Inhibitory activity against hepatitis C virus (HCV) NS3 protease (full-length); parameters: species or system Hepacivirus hominis
NS3 [2] = molecular target: T1, NS3; assay: Inhibitory activity against hepatitis C virus (HCV) NS3 protease (isolated domain); parameters: species or system Hepacivirus hominis
NS3 (Hepatitis C virus) = NS3 (Hepatitis C virus) (UniProt A3EZJ3); assay: Inhibitory activity against hepatitis C virus (HCV) NS3 protease (isolated domain) at a concentration of 6 uM; conditions: Hepacivirus hominis
NS3 (Hepatitis C virus), sequence (A3EZJ3 as listed by the source): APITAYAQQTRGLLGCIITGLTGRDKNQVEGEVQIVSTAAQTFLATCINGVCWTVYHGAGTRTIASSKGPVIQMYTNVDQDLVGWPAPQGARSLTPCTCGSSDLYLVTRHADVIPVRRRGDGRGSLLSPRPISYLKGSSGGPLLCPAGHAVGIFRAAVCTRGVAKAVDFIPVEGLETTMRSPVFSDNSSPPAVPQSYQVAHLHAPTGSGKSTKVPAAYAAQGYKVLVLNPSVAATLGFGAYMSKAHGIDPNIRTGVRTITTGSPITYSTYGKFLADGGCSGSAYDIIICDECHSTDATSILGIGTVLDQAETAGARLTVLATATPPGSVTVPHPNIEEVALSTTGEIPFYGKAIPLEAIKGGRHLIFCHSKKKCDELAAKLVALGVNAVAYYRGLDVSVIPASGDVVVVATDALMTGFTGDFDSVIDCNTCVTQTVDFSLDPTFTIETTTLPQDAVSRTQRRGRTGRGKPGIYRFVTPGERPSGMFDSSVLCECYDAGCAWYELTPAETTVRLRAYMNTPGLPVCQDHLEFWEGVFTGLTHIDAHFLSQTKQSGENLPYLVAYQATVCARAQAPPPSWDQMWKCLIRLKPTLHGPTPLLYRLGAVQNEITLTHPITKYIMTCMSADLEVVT

T1 sequence (A3EZJ3 whole entry, the tested form may be a part): as the sequence (A3EZJ3 as listed by the source) above

Molecule	Ki (NS3 [1]) [µM]	Ki (NS3 [2]) [µM]	inhibition (NS3 (Hepatitis C virus)) [%]
CC(C)C[C@H](NC(=O)[C@@H](CCC(=O)O)NC(=O)[C@@H](N)CC(=O)O)C(=O)N[C@@H](CCC(=O)O)C(=O)N[C@@H](CC1CCCCC1)C(=O)N[C@@H](CS)C(=O)O	1.54		
CC(=O)N[C@@H](CC(=O)O)C(=O)N[C@@H](CCC(=O)O)C(=O)N[C@@H](CC(C)C)C(=O)N[C@@H](CCC(=O)O)C(=O)N[C@@H](CC1CCCCC1)C(=O)N[C@@H](CS)C(=O)O	0.49	0.06	
CC(=O)N[C@@H](CC(=O)O)C(=O)N[C@H](CCC(=O)O)C(=O)N[C@@H](CC(C)C)C(=O)N[C@@H](CCC(=O)O)C(=O)N[C@@H](CC1CCCCC1)C(=O)N[C@@H](CS)C(=O)O	0.18	0.023	
CSCC[C@H](NC(=O)[C@H](CCC(=O)O)NC(=O)[C@H](CC(=O)O)NC(C)=O)C(=O)N[C@@H](CCC(=O)O)C(=O)N[C@@H](Cc1ccc2ccccc2c1)C(=O)N[C@@H](CS)C(=O)O (Ac-DEME[2Nal]C-OH)	1.04	0.18	
CSCC[C@H](NC(=O)[C@H](CCC(=O)O)NC(=O)[C@H](CC(=O)O)NC(C)=O)C(=O)N[C@@H](CCC(=O)O)C(=O)N[C@@H](CC1CCCCC1)C(=O)N[C@@H](CS)C(=O)O (Ac-DEME[Cha]C-OH)	0.44	0.4	
CC(=O)N[C@@H](CC(=O)O)C(=O)N[C@@H](CCC(=O)O)C(=O)N[C@H](C(=O)N[C@@H](CCC(=O)O)C(=O)N[C@@H](CC1CCCCC1)C(=O)N[C@@H](CS)C(=O)O)C(c1ccccc1)c1ccccc1 (Ac-DE[Dip]E[Cha]C-OH)	0.041	0.025	
CC[C@H](C)[C@H](NC(=O)[C@@H](NC(=O)[C@H](CCC(=O)O)NC(=O)[C@H](CC(=O)O)NC(C)=O)C(c1ccccc1)c1ccccc1)C(=O)N[C@@H](CC1CCCCC1)C(=O)N[C@@H](CS)C(=O)O (Ac-DE[Dip]I[Cha]C-OH)	0.22	0.03	
CC(=O)N[C@@H](CC(=O)O)C(=O)N[C@@H](CCC(=O)O)C(=O)N[C@H](C(=O)N[C@@H](CCCCN)C(=O)N[C@@H](CC1CCCCC1)C(=O)N[C@@H](CS)C(=O)O)C(c1ccccc1)c1ccccc1 (Ac-DE[Dip]K[Cha]C-OH)	1.24		8
CC[C@H](C)[C@H](NC(=O)[C@H](CC(C)C)NC(=O)[C@@H](CC(C(=O)O)C(=O)O)NC(=O)[C@H](CC(=O)O)NC(C)=O)C(=O)N[C@@H](CC1CCCCC1)C(=O)N[C@@H](CS)C(=O)O (Ac-D[dGla]LI[Cha]C-OH)	0.012	0.00075	
CC(=O)N[C@@H](CCC(=O)O)C(=O)N[C@H](C(=O)N[C@@H](CCC(=O)O)C(=O)N[C@@H](CC1CCCCC1)C(=O)N[C@@H](CS)C(=O)O)C(c1ccccc1)c1ccccc1 (Ac-E[Dip]E[Cha]C-OH)	0.33	0.7	
CC[C@H](C)[C@H](NC(=O)[C@@H](NC(=O)[C@H](CCC(=O)O)NC(C)=O)C(c1ccccc1)c1ccccc1)C(=O)N[C@@H](CC1CCCCC1)C(=O)N[C@@H](CS)C(=O)O (Ac-E[Dip]I[Cha]C-OH)	1	1.2	
CC(=O)N[C@@H](CCC(=O)O)C(=O)N[C@@H](CC1CCCCC1)C(=O)N[C@@H](CS)C(=O)O (Ac-Glu-[Cha]-Cys-OH)	4.1	230	
CC[C@H](C)[C@H](NC(C)=O)C(=O)N[C@@H](CC1CCCCC1)C(=O)N[C@@H](CS)C(=O)O (Ac-Ile-[Cha]-Cys-OH)	25		
CC(=O)N[C@H](C(=O)N[C@@H](CCC(=O)O)C(=O)N[C@@H](CC1CCCCC1)C(=O)N[C@@H](CS)C(=O)O)C(c1ccccc1)c1ccccc1 (Ac-[Dip]E[Cha]C-OH)	1.1	15	
CC[C@H](C)[C@H](NC(=O)[C@@H](NC(C)=O)C(c1ccccc1)c1ccccc1)C(=O)N[C@@H](CC1CCCCC1)C(=O)N[C@@H](CS)C(=O)O (Ac-[Dip]I[Cha]C-OH)	2.1	50	
Ac-DEMEEC-OH	0.36	0.5	
